Measured values published in US20130040882A1, “USE OF FIBROBLAST GROWTH FACTOR FRAGMENTS” (NOVARTIS AG, priority 2003, published 2013).

Tested on: uterine gene expression
Test: Gene expression profiling (HGU133A) in the uterus of ovariectomized monkeys treated with estradiol, tamoxifen or raloxifene
Format: in vivo, cynomolgus monkeys (Macaca fascicularis)
Conditions: uterus, OVX monkeys

CC/C(=C(\c1ccccc1)c1ccc(OCCN(C)C)cc1)c1ccccc1 [tamoxifen]
Fold change relative to SHAM control: Growth associated protein 43: 0.8 fold
Fold change relative to SHAM control: H2A histone family, member Y: 1.4 fold
Fold change relative to SHAM control: Heparan sulfate proteoglycan 2 (perlecan): 1.0 fold
Fold change relative to SHAM control: Histone H2A.F/Z variant: 1.4 fold
Fold change relative to SHAM control: Insulin-like growth factor binding protein 2, 36 kda: 1.7 fold
Fold change relative to SHAM control: Insulin-like growth factor binding protein 5: 1.0 fold
Fold change relative to SHAM control: Integrin, beta 5: 0.9 fold
Fold change relative to SHAM control: Intercrine-alpha, mrna sequence: 0.9 fold
Fold change relative to SHAM control: LDL receptor adaptor protein: 1.6 fold
Fold change relative to SHAM control: LIM and senescent cell antigen-like domains 1: 1.1 fold
Fold change relative to SHAM control: Laminin, beta 1: 1.0 fold
Fold change relative to SHAM control: Latent transforming growth factor beta binding protein 1: 1.2 fold
Fold change relative to SHAM control: Matrix metalloproteinase 19: 0.3 fold
Fold change relative to SHAM control: Mitogen-activated protein kinase kinase kinase kinase 4: 1.0 fold
Fold change relative to SHAM control: Nidogen (enactin): 1.4 fold
Fold change relative to SHAM control: Osteoglycin (osteoinductive factor, mimecan): 0.8 fold
Fold change relative to SHAM control: Peroxiredoxin 1: 1.4 fold
Fold change relative to SHAM control: Phosphatase and tensin homolog (mutated in multiple advanced cancers 1): 1.0 fold
Fold change relative to SHAM control: Phospholipid transfer protein: 0.9 fold
Fold change relative to SHAM control: Pituitary tumour-transforming 1 interacting protein: 0.9 fold
Fold change relative to SHAM control: Procollagen C-endopeptidase enhancer: 1.1 fold
Fold change relative to SHAM control: Procollagen-proline, 2-oxoglutarate 4-dioxygenase (proline 4-hydroxylase), alpha polypeptide II: 1.0 fold
Fold change relative to SHAM control: Progesterone receptor: 1.5 fold
Fold change relative to SHAM control: Protein tyrosine kinase 9: 1.1 fold
Fold change relative to SHAM control: SET domain, bifurcated 1: 1.4 fold
Fold change relative to SHAM control: SPARC-like 1 (mast9, hevin): 0.8 fold
Fold change relative to SHAM control: Secreted frizzled-related protein 1: 1.1 fold
Fold change relative to SHAM control: Secreted frizzled-related protein 4: 1.4 fold
Fold change relative to SHAM control: Secreted protein, acidic, cysteine-rich (osteonectin): 1.0 fold
Fold change relative to SHAM control: Serine (or cysteine) proteinase inhibitor, clade H (heat shock protein 47), member 1, (collagen binding protein 1): 1.1 fold
Fold change relative to SHAM control: Solute carrier family 22 (organic cation transporter), member 1-like: 1.5 fold
Fold change relative to SHAM control: Solute carrier family 25 (mitochondrial carrier; adenine nucleotide translocator), member 5: 1.5 fold
Fold change relative to SHAM control: Stem cell growth factor; lymphocyte secreted C-type lectin: 0.9 fold
Fold change relative to SHAM control: Tenascin C (hexabrachion): 2.9 fold
Fold change relative to SHAM control: Testis Enhanced Gene Transcript (Bax Inhibitor 1): 1.5 fold
Fold change relative to SHAM control: Thioredoxin interacting protein: 0.9 fold
Fold change relative to SHAM control: Transforming growth factor, beta-induced, 68 kda: 1.0 fold
Fold change relative to SHAM control: Ubiquinol-cytochrome c reductase, Rieske iron-sulfur polypeptide 1: 1.1 fold
Fold change relative to SHAM control: Wingless-type MMTV integration site family, member 2B: 1.1 fold
Fold change relative to SHAM control: Wingless-type MMTV integration site family, member 16: 1.0 fold
Fold change relative to OVX: Insulin receptor (Table 46): 0.7 fold
Fold change relative to SHAM control: Insulin receptor (Table 46): 1.2 fold
Fold change relative to OVX: Insulin receptor (Table 51): 0.7 fold
Fold change relative to SHAM control: Insulin receptor (Table 51): 1.2 fold
Fold change relative to OVX: Fibronectin 1 (entry with OVX average 39): 2.3 fold
Fold change relative to OVX: Bone morphogenetic protein 1 (entry with OVX average 79): 1.9 fold
Fold change relative to OVX: Bone morphogenetic protein 1 (entry with OVX average 93): 2.2 fold
Fold change relative to OVX: Insulin-like growth factor 1 (somatomedin C) (entry with OVX average 102): 3.7 fold
Fold change relative to OVX: Fibrillin 1 (Marfan syndrome) (entry with OVX average 124): 1.9 fold
Fold change relative to OVX: Collagen, type I, alpha 2 (entry with OVX average 154): 6.1 fold
Fold change relative to OVX: Insulin-like growth factor 1 (somatomedin C) (entry with OVX average 156): 4.6 fold
Fold change relative to OVX: Solute carrier family 2 (facilitated glucose/fructose transporter), member 5 (entry with OVX average 171): 2.2 fold
Fold change relative to OVX: Solute carrier family 2 (facilitated glucose/fructose transporter), member 5 (entry with OVX average 176): 2.1 fold
Fold change relative to OVX: Collagen, type IV, alpha 1 (entry with OVX average 182): 3.2 fold
Fold change relative to OVX: Cyclin-dependent kinase inhibitor 1C (p57, Kip2) (entry with OVX average 224): 0.7 fold
Fold change relative to OVX: Insulin-like growth factor 1 (somatomedin C) (entry with OVX average 310): 4.8 fold
Fold change relative to OVX: Fibronectin 1 (entry with OVX average 419): 2.0 fold
Fold change relative to OVX: Cyclin-dependent kinase inhibitor 1C (p57, Kip2) (entry with OVX average 527): 0.5 fold
Fold change relative to OVX: Fibronectin 1 (entry with OVX average 586): 1.9 fold
Fold change relative to OVX: Fibronectin 1 (entry with OVX average 648): 1.9 fold
Fold change relative to OVX: Collagen, type IV, alpha 1 (entry with OVX average 690): 2.7 fold
Fold change relative to OVX: Fibronectin 1 (entry with OVX average 757): 1.6 fold
Fold change relative to OVX: Cyclin-dependent kinase inhibitor 1C (p57, Kip2) (entry with OVX average 762): 0.5 fold
Fold change relative to OVX: ATP synthase, H+ transporting, mitochondrial F0 complex, subunit c (subunit 9) isoform 3 (entry with OVX average 811): 2.0 fold
Fold change relative to OVX: Fibrillin 1 (Marfan syndrome) (entry with OVX average 874): 2.1 fold
Fold change relative to OVX: ATP synthase, H+ transporting, mitochondrial F0 complex, subunit c (subunit 9) isoform 3 (entry with OVX average 1007): 1.9 fold
Fold change relative to OVX: Collagen, type III, alpha 1 (Ehlers-Danlos syndrome type IV, autosomal dominant) (entry with OVX average 1084): 3.4 fold
Fold change relative to OVX: Collagen, type I, alpha 2 (entry with OVX average 2757): 3.7 fold
Fold change relative to OVX: Collagen, type III, alpha 1 (Ehlers-Danlos syndrome type IV, autosomal dominant) (entry with OVX average 3445): 2.9 fold
Fold change relative to OVX: H3 histone, family 3A (entry with OVX average 9495): 1.4 fold
Fold change relative to OVX: H3 histone, family 3A (entry with OVX average 9692): 1.4 fold
Fold change relative to SHAM control: Fibronectin 1 (entry with SHAM average 100): 0.9 fold
Fold change relative to SHAM control: Bone morphogenetic protein 1 (entry with SHAM average 143): 1.0 fold
Fold change relative to SHAM control: Cyclin-dependent kinase inhibitor 1C (p57, Kip2) (entry with SHAM average 201): 0.8 fold
Fold change relative to SHAM control: Bone morphogenetic protein 1 (entry with SHAM average 205): 1.0 fold
Fold change relative to SHAM control: Insulin-like growth factor 1 (somatomedin C) (entry with SHAM average 226): 1.7 fold
Fold change relative to SHAM control: Fibrillin 1 (Marfan syndrome) (entry with SHAM average 236): 1.0 fold
Fold change relative to SHAM control: Solute carrier family 2 (facilitated glucose/fructose transporter), member 5 (entry with SHAM average 291): 1.3 fold
Fold change relative to SHAM control: Solute carrier family 2 (facilitated glucose/fructose transporter), member 5 (entry with SHAM average 317): 1.2 fold
Fold change relative to SHAM control: Insulin-like growth factor 1 (somatomedin C) (entry with SHAM average 417): 1.7 fold
Fold change relative to SHAM control: Collagen, type IV, alpha 1 (entry with SHAM average 436): 1.3 fold
Fold change relative to SHAM control: Cyclin-dependent kinase inhibitor 1C (p57, Kip2) (entry with SHAM average 459): 0.6 fold
Fold change relative to SHAM control: Collagen, type I, alpha 2 (entry with SHAM average 493): 1.9 fold
Fold change relative to SHAM control: Insulin-like growth factor 1 (somatomedin C) (entry with SHAM average 581): 2.6 fold
Fold change relative to SHAM control: Cyclin-dependent kinase inhibitor 1C (p57, Kip2) (entry with SHAM average 660): 0.6 fold
Fold change relative to SHAM control: Fibronectin 1 (entry with SHAM average 920): 0.9 fold
Fold change relative to SHAM control: ATP synthase, H+ transporting, mitochondrial F0 complex, subunit c (subunit 9) isoform 3 (entry with SHAM average 1045): 1.6 fold
Fold change relative to SHAM control: Fibronectin 1 (entry with SHAM average 1089): 1.0 fold
Fold change relative to SHAM control: Collagen, type IV, alpha 1 (entry with SHAM average 1143): 1.6 fold
Fold change relative to SHAM control: Fibronectin 1 (entry with SHAM average 1288): 0.9 fold
Fold change relative to SHAM control: Fibronectin 1 (entry with SHAM average 1301): 0.9 fold
Fold change relative to SHAM control: ATP synthase, H+ transporting, mitochondrial F0 complex, subunit c (subunit 9) isoform 3 (entry with SHAM average 1355): 1.4 fold
Fold change relative to SHAM control: Fibrillin 1 (Marfan syndrome) (entry with SHAM average 1388): 1.3 fold
Fold change relative to SHAM control: Collagen, type III, alpha 1 (Ehlers-Danlos syndrome type IV, autosomal dominant) (entry with SHAM average 2992): 1.2 fold
Fold change relative to SHAM control: Collagen, type III, alpha 1 (Ehlers-Danlos syndrome type IV, autosomal dominant) (entry with SHAM average 7354): 1.4 fold
Fold change relative to SHAM control: Collagen, type I, alpha 2 (entry with SHAM average 7758): 1.3 fold
Fold change relative to SHAM control: H3 histone, family 3A (entry with SHAM average 9408): 1.4 fold
Fold change relative to SHAM control: H3 histone, family 3A (entry with SHAM average 10239): 1.3 fold
